Source: ChEMBL document CHEMBL6121030, “Asymmetric Synthesis, Structure Determination, and Biologic Evaluation of Isomers of TLAM as PFK1 Inhibitors” (ACS Med Chem Lett, 2025)

Test system: not listed separately; call rule not given here
Test: Inhibition of recombinant PFK1 (unknown origin) extracted from baculovirus-infected Sf9 cells incubated for 45 min by ADP-Glo kinase assay
Parameters: species or system Homo sapiens

Which IC50 does the source give for `O=C(O)[C@@H]1C2C=CC(C2)[C@@H]1C(=O)N1CCc2c([nH]c3ccccc23)[C@@H]1C(F)(F)F` (stereo partly specified) here?
Its IC50 is 4.7 µM.

Which IC50 does the source give for `O=C(O)C1C2C=CC(C2)C1C(=O)N1CCc2c([nH]c3ccccc23)C1C(F)(F)F` (stereo unspecified) here?
The IC50 was 2.7 µM.

With `O=C(O)[C@H]1C2C=CC(C2)[C@H]1C(=O)N1CCc2c([nH]c3ccccc23)[C@@H]1C(F)(F)F` (stereo partly specified) as the compound, how does the IC50 read?
The IC50 was 25 µM.

Which IC50 does the source give for `O=C(O)[C@@H]1C2C=CC(C2)[C@@H]1C(=O)N1CCc2c([nH]c3ccccc23)[C@H]1C(F)(F)F` (stereo partly specified) here?
Its IC50 is greater than 100 µM.

With `O=C(O)[C@H]1C2C=CC(C2)[C@H]1C(=O)N1CCc2c([nH]c3ccccc23)[C@H]1C(F)(F)F` (stereo partly specified) as the compound, how does the IC50 read?
Its IC50 is 2.1 µM.

Test system: HeLa
Test: Effect on mitochondrial respiration in human HeLa cells assessed as increase in OCR/ECAR ratio incubated for 24 hrs by XFe96 extracellular flux analyzer assay
Type: functional, cell-based

Which Activity does the source give for `O=C(O)[C@H]1C2C=CC(C2)[C@H]1C(=O)N1CCc2c([nH]c3ccccc23)[C@H]1C(F)(F)F` (stereo partly specified) here?
The Activity was “Active; Significantly Increased”.
